# Paper PMC2725291, “Genetic and Molecular Basis of Individual Differences in Human Umami Taste Perception” (PLoS ONE, 2009)
# Legend:
# [1] = system: TAS1R1/TAS1R3 variants; test: Ca2+ imaging (FlexStation II), comparison across receptor variants (AR, TR, AC, TC); assay type: cell-based, human; conditions: MSG alone
# Text: Intronless human TAS1Rs and Gαl6 expression constructs were generated in the pEF-DEST51 Gateway vector (Invitrogen) by genomic DNA-based methods. To subclone each gene into the vector, a Kozak cassette was introduced at the 5′ end before the start codon. Gαl6 chimeras were generated by PCR with mutagenic primers. The carboxyl-terminal tail of Gαl6, five-residue (EINLL) was replaced by its counterpart from Gαi3 (ECGLY; Gα16-i3), Gαgust (DCGLF; Gα16-gust), and Gα16-gust44 was generated as described. The integrity of all DNA constructs was confirmed by DNA sequencing. Point mutations in TAS1Rs were made using the same overlapping PCR strategy with mutagenic primers.
# HEK293 cells were cultured at 37°C under a humidified atmosphere containing 5% CO2 in Dulbecco's modified Eagle's medium supplemented with 10% fetal bovine serum. To obtain reproducible Ca^2+ responses, cells were split every 2 days before cells become confluent. Cells were discarded after 2 months of passages and new cells were prepared from frozen-stock. For calcium imaging experiments, cells were seeded onto a 35 mm recording chamber or poly-D-lysine coated 96-well black-wall, clear-bottom recording plates. After 24 hrs at 37°C, confluent cells (60∼70%) were washed in OptiMEM medium supplemented with GlutaMAX-I (invitrogen) and plasmid DNAs were transiently cotransfected into HEK293 cells using Lipofectamine2000 regent (invitrogen) (2.0 µl per 1.0 µg DNA). […]
# Student's t-test was used for detection of differences in the mean recognition thresholds between males and females. […] The mean values (the center±S.E. of gaussian curve on X-axis) in the distribution of recognition thresholds defined by TAS1R1/TAS1R3 haplotypes (TAS1R1-372A/TAS1R3-757R homozygotes, TAS1R1-372T/TAS1R3-757R homozygotes, homo- and heterozygotes containing TAS1R3-757C) were calculated using gauss fit function of Origin 5.0 (OriginLab Corp). For Ca^2+ imaging analysis, data were normalized to response to 10 µM ISO, and mean values (±S.E.) were calculated from 10∼18 independent analyses.
# [2] = system: Mock-transfected HEK cells; test: Ca2+ imaging in mock-transfected HEK cells; assay type: cell-based, human; conditions: without the three genes, Gα16-i3 alone, Gα16-i3/TAS1R1 without TAS1R3, Gα16-i3/TAS1R3 without TAS1R1
# Description: HEK293 cells were cultured at 37°C under a humidified atmosphere containing 5% CO2 in Dulbecco's modified Eagle's medium supplemented with 10% fetal bovine serum. To obtain reproducible Ca^2+ responses, cells were split every 2 days before cells become confluent. Cells were discarded after 2 months of passages and new cells were prepared from frozen-stock. For calcium imaging experiments, cells were seeded onto a 35 mm recording chamber or poly-D-lysine coated 96-well black-wall, clear-bottom recording plates. […] The transfection efficiencies were estimated by visualizing DsRed fluorescence (data not shown) or by immunocytochemistry of TAS1R3, and were typically 50∼55% (Figure S4). […]
# Two Ca^2+ imaging systems were used. […] Taste solutions diluted in HBSS were applied sequentially to the cells for 30 s with a peristaltic pump at a flow rate of 1.5 ml/min, and fluorescence images were obtained using a S Fluor ×20/0.75 objective lens (Nikon) via a cooled-CCD camera (C6790, Hamamatsu Photonics) fitted to a TE300 microscope (Nikon). Acquisition and analysis of these fluorescence images used AquaCosmos software (v. 1.3, Hamamatsu Photonics). […] Responses were measured from 30 individual responding cells. […]
structure (smiles),measurement,setting,value
"N[C@@H](CCC(=O)O)C(=O)[O-].[Na+] [MSG, monosodium glutamate]","more sensitive responses (EC50 comparison) of 372T/757R (TR) compared to the other variants (AR, AC and TC)",[1],about 1.5 fold
same,EC50,"[1]; the other variants (AR, AC and TC)",27.6 to 32.2 mM
same,Ca2+ response of mock-transfected HEK cells,[2],did not respond
